The results in this text go back to patent publication US7105517B2 (priority 2001, dated 2006).

Where “and” joins values, the source holds several entries; their conditions need not be identical. Equal values may be shown once.

The term melting point denotes the temperature, or range, at which the solid turns liquid. `Nc1nc(-c2ccccc2)c(-c2ccnc(Nc3cccc(F)c3)n2)s1`: the melting point was 243 to 245 °C.

Regarding `CN1CCN(c2nc(-c3ccccc3)c(-c3ccnc(Nc4ccccc4)n3)s2)CC1`, the melting point fell in the range of 239 to 240 °C. For `COc1ccc(-c2cccc(Nc3nccc(-c4sc(N)nc4-c4ccccc4)n3)c2)cc1OC`, the melting point lay in the range of 236 to 237 °C. Next, `Nc1nc(-c2ccccc2)c(-c2ccnc(Nc3cccc(CO)c3)n2)s1`: 214 to 215 °C. For `Nc1nc(-c2ccccc2)c(-c2ccnc(Nc3ccccc3)n2)s1`, the melting point was 244 to 245 °C and 247 to 250 °C.

The compound `Nc1nc(-c2ccccc2)c(-c2ccnc(Nc3cccc(Cl)c3)n2)s1` displayed a melting point of 243 to 245 °C.
